Tested on: new influenza virus (A/California/04/2009(H1N1))
Format: in vivo
Conditions: H1N1-infected BALB/c mice (6 per group), observed 14 days after infection; ginseng concentrates 10 mg/kg/day for 14 days before and one week after inoculation; Tamiflu 2 mg/kg/day

Which Fatality does the source give for `CCOC(=O)C1=C[C@@H](OC(CC)CC)[C@H](NC(C)=O)[C@@H](N)C1` [Tamiflu] here?
The Fatality was 0%.
